Reference: patent US9212381B2, “Methods and compositions for labeling polypeptides” (President and Fellows of Harvard College, priority 2011, dated 2015)
Entries after “also recorded” stand apart in the source; their conditions may differ.

What was measured:
[1] = system: protein translation in rabbit reticulocyte lysates; assay: in vitro translation of 35S-Met-labeled GFP-SuFu in rabbit reticulocyte lysates, SDS-PAGE and autoradiography; format: biochemical; details: for inhibition of protein translation in vitro: varying concentrations, 1 hour at 30° C.
Method: (§1) A plasmid carrying a GFP fusion of the mouse Suppressor of Fused (SuFu) gene under the control of an SP6 RNA polymerase promoter was used to generate 35[S]-Met-labeled GFP-SuFu by in vitro translation in rabbit reticulocyte lysates (TNT SP6 Quick coupled transcription/translation kit, Promega), according to the manufacturer's instructions. Translation reactions were performed for 1 hour at 30° C., in the absence or presence of varying concentrations of puro and OP-puro. The reactions were stopped by addition of SDS-PAGE sample buffer with 50 mM DTT and boiling. Equal amounts of lysate were separated by SDS-PAGE and the amount of in vitro translated GFP-SuFu was determined by autoradiography.
as §1, with “^35S-Met-labeled” for “35[S]-Met-labeled”, “AE-puro (azido-puromycin, FIG. 5A).” for “OP-puro.”

Cells = details: Beatty et al. 2002; cited from earlier work
NIH-3T3 cells = assay: OP-puro labeling of cultured cells, CuAAC with Alexa568-azide, fluorescence microscopy; format: cell-based
Method: NIH-3T3 cells were grown on glass coverslips in Dulbecco modified Eagle's medium (DMEM) supplemented with 10% bovine calf serum, penicillin and streptomycin. OP-puro was added to cells in complete culture medium. After incubation for the desired amount of time, the cells were washed with PBS and then fixed with cold methanol for 2 minutes at −20° C. The cells were washed with TBS (10 mM Tris pH 7.5, 150 mM NaCl), permeabilized with TBST (TBS with 0.2% Triton X-100), and then washed with TBS again. CuAAC detection of OP-puro incorporated into nascent protein was performed by reacting the fixed cells for 30 minutes at room temperature with 20 μM Alexa568-azide, as described (Salic et al., Proc. Natl. Acad. Sci. USA 105(7):2415-2420 (2008)). Cu(I) was generated in situ from CuSO4 and ascorbic acid. After staining, the coverslips were washed several times with TBST, counterstained with Hoechst, and mounted in standard mounting media. The stained cells were imaged by DIC and by epi-fluorescence microscopy on a Nikon TE2000U microscope equipped with an OrcaER camera (Hammamatsu), and 20× PlanApo 0.75 NA and 40× PlanApo 0.95 NA air objectives (Nikon). Images were collected using Metamorph image acquisition software (Applied Precision).
To determine if protein synthesis is required for OP-puro incorporation into nascent polypeptides, cells were incubated with OP-puro, in the presence or absence of 50 micrograms/mL cycloheximide (CHX), added to the cells 15 minutes before OP-puro. This concentration of CHX was determined to completely block protein translation in cells.
To determine the effect of inhibiting the proteasome on the stability of OP-puro-conjugated polypeptide chains, cells were pulse-labeled with 50 microM OP-puro for 15 minutes and were then incubated in complete media supplemented with 50 micrograms/mL CHX (to block further incorporation of OP-puro into nascent proteins), in the presence or absence of 5 microM of the proteasome inhibitor bortezomib. Cells were fixed at the indicated times and were stained in parallel with Alexa568-azide. Two negative controls were used: 1) untreated cells; and 2) cells pre-incubated with 50 micrograms/mL CHX for 15 minutes, followed by incubation with 50 microM OP-puro and 50 micrograms/mL CHX for another 15 minutes.

[2] = system: human embryonic kidney 293T cells; assay: translation inhibition in cells: 35S-Met bulk protein translation, SDS-PAGE and autoradiography; format: cell-based
Method: To measure translation inhibition in cells, human embryonic kidney 293T cells were pre-incubated for 30 minutes with varying concentrations of puro or OP-puro, in complete media. The cells were then incubated for 3 hours in Met-free media supplemented with 35[S]-Met (from Perkin-Elmer, at 100 microCi/mL final concentration), in the continued presence of varying concentrations of puro or OP-puro. The cells were harvested, lyzed in TBS with 1% Triton X-100 and protease inhibitors (Complete tablets, Roche), and centrifuged for 15 minutes at 20,000 g in a refrigerated centrifuge. The clarified cells lysates were analyzed by SDS-PAGE, followed by autoradiography, to measure bulk protein translation.

Human 293T cells = assay: affinity purification of nascent polypeptide-OP-puro conjugates (CuAAC with biotin azide, beads, autoradiography); format: cell-based; details: 25 microM OP-puro, 1 hour, FIG. 1E
Method: Human 293T cells were labeled for 1 hour in Met-free DMEM supplemented with 10% dialyzed fetal bovine serum and 35[S]-Met (100 microCi/mL final). The cells were then incubated in the same media, in the presence of 10 microM puro, 25 microM OP-puro or 25 microM OP-puro and 50 micrograms/mL CHX, for an additional 1 hour. The cells were harvested, washed with ice cold PBS and then lyzed on ice in 100 mM Tris pH 8.5 with 1% Triton-X10 and protease inhibitors. The lysates were clarified by centrifugation for 15 minutes at 20,000 g and 4° C., and were then subjected to CuAAC with biotin azide for 30 minutes at room temperature. The final concentrations in the CuAAC reaction were: 100 microM biotin azide, 1 mM CuSO4 and 50 mM ascorbic acid (added last to the lysates). Biotinylated proteins were diluted in binding buffer (20 mM Tris pH 8, 500 mM NaCl, 1% Triton-X100) and were bound to Neutravidin beads (Pierce). After extensive washes with binding buffer, bound proteins were eluted, separated by SDS-PAGE and detected by autoradiography.

[3] = system: nascent proteins in mouse tissues; assay: imaging of protein synthesis in whole animals with OP-puro, CuAAC with TMR-azide; format: in vivo
Method: One hundred microliters of a 20 mM solution of OP-puro in PBS were injected intraperitoneally into a 3-week old mouse, while a mouse injected with 100 microliters of PBS was used as negative control. Various organs were harvested after one hour and were fixed in formalin overnight. Organ fragments were embedded in paraffin, sectioned, and washed with xylene to remove the paraffin. After washing with ethanol and rehydration in TBS, the tissue sections were stained with 20 microM tetramethylrhodamine(TMR)-azide, as described (Salic et al., Proc. Natl. Acad. Sci. USA 105(7):2415-2420 (2008)). The tissue sections were counterstained with Hoechst, mounted in standard mounting media and were then imaged by fluorescence microscopy and DIC.

Compound: CN(C)c1ncnc2c1ncn2[C@@H]1O[C@H](CO)[C@@H](NC(=O)[C@@H](N)Cc2ccc(OCCN=[N+]=[N-])cc2)[C@H]1O [AE-puro, (S)-2-Amino-3-(4-(2-azidoethoxy)phenyl)-N-((2S,3S,4R,5R)-5-(6-(dimethylamino)-9H-purin-9-yl)-4-hydroxy-2(hydroxymethyl)tetrahydrofuran-3-yl)propanamide]
- potency of protein synthesis inhibition compared with unmodified puromycin ([1]; reticulocyte lysates, FIG. 5B): equal to that of unmodified puromycin
- inhibition of protein translation in vitro [1]: inhibits protein synthesis in a dose-dependent manner

Compound: [N-]=[N+]=NCC[C@H](N)C(=O)O [Aha, azidohomoalanine]
- factor by which cells prefer Met over the analog (Cells): about 500

Compound: C[C@@H]1C[C@@H]([C@H](O)CC2CC(=O)NC(=O)C2)C(=O)[C@@H](C)C1 [CHX, cycloheximide, reference compound]
- effect on OP-puro incorporation / conjugate formation (NIH-3T3 cells; CHX 50 micrograms/mL): abolished; also recorded: do not form
- concentration determined to completely block protein translation in cells (NIH-3T3 cells; added 15 minutes before OP-puro): 50 micrograms/mL

Compound: C#CCCC(N)C(=O)O (stereo not drawn) [Hpg, homopropargylglycine]
- factor by which cells prefer Met over the analog (Cells): about 500

Compound: C#CCOc1ccc(C[C@H](N)C(=O)N[C@H]2[C@@H](O)[C@H](n3cnc4c(N(C)C)ncnc43)O[C@@H]2CO)cc1 [OP-puro, (S)-2-Amino-N-((2S,3S,4R,5R)-5-(6-(dimethylamino)-9H-purin-9-yl)-4-hydroxy-2-(hydroxymethyl)tetrahydrofuran-3-yl)-3-(4-(prop-2-yn-1-yloxy)phenyl)propanamide]
- potency of protein synthesis inhibition, fold lower than that of unmodified puro ([1]; reticulocyte lysates, FIG. 1C): 2-3 fold
- inhibition of protein translation in vitro [1]: inhibits protein synthesis in a dose-dependent manner
- concentration that blocked protein synthesis almost completely ([2]; cell type not stated at the place): 25 µM
- potency of protein synthesis inhibition, fold lower than that of unmodified puro ([2]; cultured cells, FIG. 1D): 2-3 fold
- fluorescent signal versus OP-puro concentration (NIH-3T3 cells; 1 hour incubation, Alexa568-azide, FIG. 2A): specific fluorescent signal proportional to the concentration of OP-puro; also recorded: proportional to the concentration of added OP-puro
- cytoplasmic OP-puro signal at later time points (NIH-3T3 cells; 3 hour image of FIG. 2B): significantly decreased
- incubation time after which a strong signal was seen (NIH-3T3 cells; FIG. 2B): 15 min
- concentration sufficient to completely block protein synthesis (NIH-3T3 cells; stated in legend of FIG. 2B): 50 µM
- formation of conjugates with nascent polypeptide chains (Human 293T cells): formed conjugates with 35[S]-Met-labeled nascent polypeptide chains
- OP-puro incorporation into nascent proteins in tissues ([3]; 100 microliters 20 mM intraperitoneally, organs harvested after 1 hour): specific patterns of OP-puro incorporation into nascent proteins
- OP-puro staining pattern, small intestine ([3]; intraperitoneal, 1 hour, FIG. 3A/3B): strongest in cells in the crypts and at the base of intestinal villi; also recorded: stains strongly the cells in the crypts (particularly Paneth cells) and the cells at the base of the villi
- OP-puro staining, muscle ([3]; intraperitoneal, 1 hour, FIG. 3C): striking striated pattern; also recorded: Sarcomeres are strongly stained
- OP-puro staining, liver ([3]; intraperitoneal, 1 hour, FIG. 4A): strongest in hepatocytes; also recorded: stains strongly all hepatocytes
- OP-puro staining, spleen ([3]; intraperitoneal, 1 hour, FIG. 4C): strongest OP-puro signal is found at the organ's periphery, under the capsule

Compound: CC(C)C[C@H](NC(=O)[C@H](Cc1ccccc1)NC(=O)c1cnccn1)B(O)O [bortezomib, reference compound]
- effect on stability of OP-puro conjugates (NIH-3T3 cells; 5 microM bortezomib in chase, FIG. 2C): become stable; also recorded: completely stabilized
